Measured values published in patent US20110217301A1, “METHODS FOR TREATING OR SCREENING FOR COMPOUNDS FOR THE TREATMENT OF SEPSIS” (priority 2009, published 2011).
Where a SMILES comes first, the peptide text is derived from it. Bridges are numbered along the chain shown (N, C = ends). [ ]: non-standard residue; d: D form. hArg = N=C(N)NCCCC[C@H](N)C(=O)O; Mpa = O=C(O)CCS

Experiments:
[1] = adults admitted to the ICU already receiving aspirin, clopidogrel or a combination; cited from earlier work
other integrins = conditions: binds specifically to GPIIb/IIIa; cited from earlier work
splenocytes = assay: Ex vivo septic platelet-splenocyte co-incubation with anti-aggregatory platelet pretreatment; apoptosis by flow cytometry (TUNEL, pan-caspase FLICA); format: cell-based, mouse
Protocol: Non-septic wild type spleens were firmly pressed between two glass slides to express splenocytes, which were isolated by centrifugation through Ficoll-Paque™ Plus (GE Healthcare Bio-Sciences Corporation, Piscataway, N.J.). Splenocyte concentrations were measured and standardized using a manual hemocytometer and co-incubated ex vivo with platelets (from septic or healthy control mice) for 90 minutes at 37° C. and 5% CO2 in complete Dulbecco's Modified Eagle Medium (DMEM) (Invitrogen/GIBCO, Carlsbad, Calif.). For some experiments, a 0.4 μm semi-permeable membrane (Corning Inc., Corning, N.Y.) was used to physically separate platelets from splenocytes.
Splenocyte apoptosis in each experimental condition was quantified in cell suspensions by flow cytometry on a FACSCalibur™ (Becton, Dickinson and Company, San Jose, Calif.) and in tissue sections by immunohistochemistry on a Nikon Eclipse E 800 Microscope (Nikon Instruments Inc., Melville, N.Y.) with a Spot RT Slider Camera (Diagnostic Instruments Inc., Sterling Heights, Mich.).
Splenocyte suspension apoptosis was identified using FlowTACS™ (Trevigen, Gaithersburg, Md.), a TUNEL-based assay for detection of DNA fragmentation. Positive controls were generated with staurosporine (Sigma Life Sciences, St Louis, Mo.). CD4+ fractions were identified by fluorophore-labeled antibody staining (clone L3T4; eBiosciences, San Diego, Calif.). We used a Sulforhodamine FLICA-Apoptosis Detection Kit Pan-Caspase Assay (Immunochemistry Technologies, Bloomington, Minn.) to measure activated caspases in apoptotic cells. Immunohistochemistry was performed on frozen heart, lung, kidney, spleen, and liver sections (4-7 μm) stained with the TUNEL-based TACK® 2 TdT In Situ Apoptosis Detection Kit (Trevigen, Gaithersburg, Md., USA) according to the manufacturer's instructions.

granzyme B = assay: Flow cytometry of intracellular granzyme B in CD61+ platelets; format: cell-based, mouse; conditions: additional platelet activation with TNFα; data not shown
Description: To determine if granzyme B mRNA up-regulation translates to increased granzyme B protein expression, additional citrated whole blood was collected from septic and control mice. It was fixed with 1% paraformaldehyde, permeabilized, and intracellularly stained with anti-granzyme B (clone 16G6; eBioscience, San Diego, Calif., USA) using appropriate isotype and negative (unlabeled) controls. Flow cytometry data were generated on a FACSCalibur™ System (BD Biosciences, San Jose, Calif., USA), gating on CD61^+ (clone 2C9.G2; BD) platelets, and analyzed using FlowJo 7.2 (Tree Star, Inc., Ashland, Oreg., USA).

CD4+ splenocytes = assay: Co-incubation of CD4+ splenocytes with platelets with or without recombinant TNFα pre-treatment; apoptosis by TiterTACS; format: cell-based, mouse
Protocol: CD4^+ splenocytes from healthy control mice were co-incubated with platelets isolated from control or septic mice for 90 minutes at 37° C. and 5% CO2 with or without platelet pre-treatment with 10 ng/mL of recombinant TNFα (Sigma-Aldrich) for 90 minutes. Splenocyte apoptosis was evaluated by TiterTACS™ (Trevigen, Gaithersburg, Md., USA), a quantitative colorimetric assay for in situ detection of DNA fragmentation. All samples were run in triplicate according to the manufacturer's protocol with data normalized to negative and nuclease-induced positive controls.
Our finding of granzyme B in platelets from septic mice and humans caused us to hypothesize that platelets could be lymphotoxic in this scenario. To study this question, platelets from mice 18 hours status post CLP were co-incubated with CD4^+ splenocytes isolated from healthy control mice. Platelets from septic wild-type (i.e. C57BL6) mice induced marked splenocyte apoptosis compared to platelets from sham wild-type mice (rate of apoptosis=26.0±3.4 versus 3.9±3.4%; p=0.007). (FIG. 4) This co-incubation experiment was repeated with platelets from septic granzyme B null (−/−) mice (i.e. B6.129S2-Gzmb^tmlLey). In this case, there was a complete lack of induced splenocyte apoptosis by septic platelets. […] (FIG. 4)

[2] = target: plasma membrane glycoprotein GPIIb/IIIa (mouse) (UniProt Q9QUM0); assay: cell-based or functional assay
[3] = eptifibatide-exposed (4 μg/mL, 15 minutes) septic wild type platelets with healthy splenocytes vs non-exposed septic platelets, mean±SEM
[4] = platelets pre-treated, compared with untreated septic platelets

UniProt Q9QUM0, sequence (Q9QUM0 32-1033, chain 1 of 2): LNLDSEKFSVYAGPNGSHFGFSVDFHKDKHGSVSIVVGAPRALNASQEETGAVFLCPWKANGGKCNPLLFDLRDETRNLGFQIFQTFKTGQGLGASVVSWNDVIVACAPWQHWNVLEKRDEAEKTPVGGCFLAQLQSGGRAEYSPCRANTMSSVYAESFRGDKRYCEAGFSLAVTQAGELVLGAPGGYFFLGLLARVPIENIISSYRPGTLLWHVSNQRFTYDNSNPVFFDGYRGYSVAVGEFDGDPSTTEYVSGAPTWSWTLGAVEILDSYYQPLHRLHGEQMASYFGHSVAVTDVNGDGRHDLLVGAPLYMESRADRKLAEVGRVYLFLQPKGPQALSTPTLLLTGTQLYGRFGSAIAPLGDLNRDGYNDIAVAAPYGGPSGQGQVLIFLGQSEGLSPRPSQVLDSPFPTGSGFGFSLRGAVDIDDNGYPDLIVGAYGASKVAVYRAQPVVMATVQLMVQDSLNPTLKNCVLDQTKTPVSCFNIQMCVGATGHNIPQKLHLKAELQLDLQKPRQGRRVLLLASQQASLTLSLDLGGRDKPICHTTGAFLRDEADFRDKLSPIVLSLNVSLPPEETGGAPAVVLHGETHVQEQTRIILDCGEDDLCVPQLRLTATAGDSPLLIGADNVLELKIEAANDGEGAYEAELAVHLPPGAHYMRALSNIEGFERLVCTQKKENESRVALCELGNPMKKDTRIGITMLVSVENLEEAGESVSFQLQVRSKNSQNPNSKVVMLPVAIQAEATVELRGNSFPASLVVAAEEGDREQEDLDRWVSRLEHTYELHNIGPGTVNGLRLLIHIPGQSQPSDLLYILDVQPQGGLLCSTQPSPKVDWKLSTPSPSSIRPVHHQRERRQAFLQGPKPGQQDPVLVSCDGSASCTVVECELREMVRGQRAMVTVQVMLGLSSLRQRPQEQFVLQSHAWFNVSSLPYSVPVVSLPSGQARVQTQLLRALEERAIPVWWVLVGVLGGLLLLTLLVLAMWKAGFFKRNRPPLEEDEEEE
UniProt Q9QUM0, sequence (O54890 26-787, chain 2 of 2, further chain): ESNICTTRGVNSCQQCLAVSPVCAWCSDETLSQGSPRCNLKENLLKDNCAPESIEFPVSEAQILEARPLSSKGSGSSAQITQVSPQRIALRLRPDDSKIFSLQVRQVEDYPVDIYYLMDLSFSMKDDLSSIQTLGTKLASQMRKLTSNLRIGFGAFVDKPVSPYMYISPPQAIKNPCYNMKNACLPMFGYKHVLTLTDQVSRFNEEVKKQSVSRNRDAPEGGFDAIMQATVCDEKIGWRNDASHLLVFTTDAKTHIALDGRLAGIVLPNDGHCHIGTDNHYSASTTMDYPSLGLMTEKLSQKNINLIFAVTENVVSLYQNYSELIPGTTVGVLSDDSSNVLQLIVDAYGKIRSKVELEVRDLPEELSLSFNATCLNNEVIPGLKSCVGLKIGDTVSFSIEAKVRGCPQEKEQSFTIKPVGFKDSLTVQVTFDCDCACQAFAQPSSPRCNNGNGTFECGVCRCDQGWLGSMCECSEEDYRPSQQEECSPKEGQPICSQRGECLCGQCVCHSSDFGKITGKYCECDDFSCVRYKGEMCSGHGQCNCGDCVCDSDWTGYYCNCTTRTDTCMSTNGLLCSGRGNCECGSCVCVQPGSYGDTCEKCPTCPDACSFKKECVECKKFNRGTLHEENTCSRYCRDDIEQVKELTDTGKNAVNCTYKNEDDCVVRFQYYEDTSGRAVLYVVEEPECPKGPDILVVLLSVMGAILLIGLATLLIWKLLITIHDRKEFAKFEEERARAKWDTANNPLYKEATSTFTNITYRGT

## CC(=O)Oc1ccccc1C(=O)O [aspirin]
[1]
  levels of MODS: decreased levels of MODS
  mortality: decreased mortality

## COC(=O)[C@H](c1ccccc1Cl)N1CCc2sccc2C1 [clopidogrel]
[1]
  levels of MODS: decreased levels of MODS
  mortality: decreased mortality

## N=C(N)NCCCC[C@@H]1NC(=O)CCSSC[C@@H](C(N)=O)NC(=O)[C@@H]2CCCN2C(=O)[C@H](Cc2c[nH]c3ccccc23)NC(=O)[C@H](CC(=O)O)NC(=O)CNC1=O [eptifibatide] ([Mpa][hArg]GDWPC-NH2; disulfide 1-7)
Other integrins
  affinity for other integrins: low affinity
splenocytes; [3]
  reduction of splenocyte apoptosis in the CD4+ fraction: 85±20.7 % reduction
  reduction of splenocyte apoptosis overall: 66.5±10.6 % reduction
splenocytes; [4]
  septic platelet-induced CD4+ splenocyte apoptosis (TUNEL+ and pan-Caspase+), result in words: significant reduction
  septic platelet-induced splenocyte apoptosis overall (TUNEL+ and pan-Caspase+), result in words: significant reduction

## TNFα
Granzyme B
  intracellular granzyme B in platelets, result in words: did not alter
CD4+ splenocytes; further platelet activation with recombinant TNFα
  lymphotoxic capacity of platelets, result in words: did not alter
CD4+ splenocytes; wild-type platelets further activated by TNFα (10 ng/mL, 90 minutes), p=0.88 vs non-activated control platelets
  rate of apoptosis (lymphotoxicity) of CD4+ splenocytes: 4.5±1.3%

## eptifibatide (peptide)
[2]
  reduction of septic platelet-induced apoptosis in the CD4+ splenocyte fraction, TUNEL+ and pan-caspase+ by flow cytometry: 85 % reduction
  reduction of septic platelet-induced splenocyte apoptosis (overall), TUNEL+ and pan-caspase+ by flow cytometry: 66.5 % reduction
